# Patent publication US20220264878A1, “HERBICIDAL COMPOSITION CONTAINING R-TYPE PYRIDYLOXY CARBOXYLIC ACID DERIVATIVE AND USE THEREOF” (Qingdao Kingagroot Chemical Compound Co., Ltd., priority 2019, published 2022)
# How the values were obtained:
# Format in all cases: in vivo
# [1] = test system: Chloris virgata; test: Post-emergence foliage spray, pot culture, fresh weight inhibition (Tables 1-48, 51-98, 101-148; 24 days)
# From the text: (§1) Table 1-48, 51-98, 101-148: Echinochloa crusgalli var. zelayensis, Eclipta prostrate, Galium aparine L., Alopecurus aequalis, Alopecurus japonicus, Lindernia procumbens, Veronica persica^1, Malachium aquaticum, Beckmannia syzigachne, Stellaria media were collected in Huai'an of Jiangsu Province; Commelina communis, Sonchus arvensis, Setaria glauca, Chloris virgata, Setaria faberi, Sonchus oleraceus L., Echinochloa oryzoides, Cirsium setosum, Xanthium strumarium were collected in Qiqiha'er of Heilongjiang Province; Sinapis arvensis, Veronica persica^2 were collected in Zhumadian of Henan Province; Ludwigia prostrate, Ammannia arenaria were collected in Zhuji of Zhejiang Province; Amaranthus retrojlexus, Descurainia sophia, Digitaria sanguinalis, Setaria viridis, Conyza Canadensis, Capsella bursa-pastoris, Eleusine indica, Ipomoea purpurea, Abutilon theophrasti, Chenopodium album, Acalypha australis, Solanum nigrum were collected in Qingdao of Shandong Province; Echinochloa caudate were collected in Pingluo of Ningxia Province.
# (§2) The above weeds were cultivated by a pot culture method. […] Full and uniform weed seeds were selected, soaked in warm water at 25° C. for 6 hours, and germinated in a 28° C. biochemical incubator (darkness). The weed seeds that had just germinatedwere evenly placed on the surface of the soil and then covered with 0.5-1 cm soil according to the sizes of seeds.
# (§3) The culture was carried out in a controllable sunlight greenhouse at 20 to 30° C., in natural light, and relative humidity of 57% to 72%.
# (§4) The technical materials were all dissolved in acetone, and diluted with an aqueous solution containing 0.1% emulsifier Tween-80. The dilution is performed as required.
# (§5) A ratio of the active ingredient A to the active ingredient B and amounts thereof in each group depends on the characteristics and toxicity of the two agents, as well as the main application purpose of a corresponding formulation. Based on the pre-tests in this study, the dosage of the active ingredient A and B applied alone and in combination were shown in the tables. Water containing the solvent and emulsifier same with the above groups but free of the agents was used as a blank control.
# (§6) Table 1-48, 51-98, 101-148, 151-206: […] per treatment, that is, a total of 60 weeds were treated in one treatment.
# (§7) Table 1-48, 51-98, 101-148: The agents were used for only once in the experiment. In the stage of weeds with 3˜4 leaves, the weeds were thinned out to maintain 15 weeds per pot and 45 weeds for each treatment, then continued to be cultured to 5˜6 leaves stage of grassy weeds, 6˜7 leaves stage of broadleaf weeds, and treated.
# (§8) The well-cultured weeds were evenly placed on a platform with an area of 0.5 m^2, and a solution of agents was sprayed on the stems and leaves thereof by the 3WP-2000-type walking spray tower at a dosage of 450 kg/ha and at a spray pressure of 0.3 MPa. After all the solution was sprayed, the valve was closed. After 30 seconds, the door of the spray tower was opened, and the nutritional bowl was taken out. Then the valve was opened, and the spray tube was cleaned by spraying 50 ml of water.
# (§9) A pot-culture method was employed. For the cultivation of weeds, please refer to the Section 1.1), and “Pesticide guidelines for laboratory bioactivity tests—herbicides”. As to a method for applying agents, please refer to the section 2.3.2), that is, a foliage treatment was employed. After the treatment, the weeds were routinely cultured in a greenhouse.
# (§10) A method for investigating absolute number was employed, wherein whole seedlings of survival weeds were cut off with a blade along the soil surface, and the fresh weight of the weeds was weighed with an analytical balance. For dead weeds, the fresh weight thereof was zero.
# (§11) Table 1-48, 51-98, 101-148, 207-216: The investigation was performed after 24 days of the treatment for only once.
# [2] = test system: Eleusine indica; test: as above; details: Table 79
# From the text: as §1, §2, §3, §4, §5, §6, §7, §8, §9, §10, §11
# [3] = test system: Conyza Canadensis; test: Post-emergence foliage spray on Conyza Canadensis with a height of 10 cm, fresh weight inhibition (Tables 207-216; 24 days); details: 24 days after treatment
# Description: as §2, §4, §5
# In the stage of weeds with 6˜8 leaves, the weeds were thinned out to maintain 3 weeds per pot and 30 weeds for each treatment, then continued to be cultured to Conyza Canadensis with a height of 10 cm, and treated.
# as §8, §9, §10
# (§12) Wherein, in the formula, X represented the fresh weight inhibition rate of the active ingredient A in a dosage of P, and Y represented the fresh weight inhibition rate of the active ingredient B in a dosage of Q.
# [4] = test system: Amaranthus retroflexus; test: Post-emergence foliage spray, pot culture, fresh weight inhibition (Tables 151-206; 20 days)
# Description: as §2, §4, §5
# (§13) In the stage of weeds with 3˜4 leaves, the weeds were thinned out to maintain 15 weeds per pot and 45 weeds for each treatment, then continued to be cultured to 4˜5 leaves stage of grassy weeds, 5˜6 leaves stage of broadleaf weeds, and treated.
# as §8, §9, §10, §12
# [5] = test system: Capsella bursa-pastoris; test: as above
# Description: as §2, §4, §5, §13, §8, §9, §10, §12
# [6] = B alone 75 g a.i./ha, 20 days after treatment
# [7] = B alone 150 g a.i./ha, 20 days after treatment
# [8] = B alone 300 g a.i./ha, 20 days after treatment
# [9] = B alone 600 g a.i./ha, 20 days after treatment
compound,measurement,setting,value
CCn1ncc(C(=O)c2ccc(S(C)(=O)=O)c(COCC(F)(F)F)c2Cl)c1OC(=O)c1cn(C)nc1C [fenpyrazone],Control effect (%) of B applied alone in corresponding dose,[1]; B 7.5 g a.i./ha,5.5%
same,Control effect (%) of B applied alone in corresponding dose,[1]; B 15 g a.i./ha,14.8%
same,Control effect (%) of B applied alone in corresponding dose,[1]; B 30 g a.i./ha,39.9%
same,Control effect (%) of B applied alone in corresponding dose,[1]; B 60 g a.i./ha,79.2%
same,Control effect (%) of B applied alone in corresponding dose,[2]; 7.5 g a.i./ha,2.9%
same,Control effect (%) of B applied alone in corresponding dose,[2]; 15 g a.i./ha,10.9%
same,Control effect (%) of B applied alone in corresponding dose,[2]; 30 g a.i./ha,38.6%
same,Control effect (%) of B applied alone in corresponding dose,[2]; 60 g a.i./ha,79.1%
COc1c(Cl)ccc(-c2nc(C(=O)OCc3ccccc3)c(Cl)c(N)c2F)c1F [florpyrauxifen benzyl],Control effect (%) of B applied alone in corresponding dose,[3]; B alone 1.875 g a.i./ha,3.5%
same,Control effect (%) of B applied alone in corresponding dose,[3]; B alone 7.5 g a.i./ha,47.4%
Nc1c(Cl)c(F)nc(OCC(=O)O)c1Cl [fluroxypyr],Control effect (%) of B applied alone in corresponding dose,[3]; B alone 37.5 g a.i./ha,5.8%
CP(=O)(O)CCC(N)C(=O)O (stereo not drawn) [glufosinate ammonium],Control effect (%) of B applied alone in corresponding dose,"[4]; B 75 g a.i./ha, 20 days",10.2%
same,Control effect (%) of B applied alone in corresponding dose,"[4]; B 150 g a.i./ha, 20 days",19.6%
same,Control effect (%) of B applied alone in corresponding dose,"[4]; B 300 g a.i./ha, 20 days",28.6%
same,Control effect (%) of B applied alone in corresponding dose,"[4]; B 600 g a.i./ha, 20 days",54.1%
same,Control effect (%) of B applied alone in corresponding dose,[4]; [6],10.2%
same,Control effect (%) of B applied alone in corresponding dose,[4]; [7],19.6%
same,Control effect (%) of B applied alone in corresponding dose,[4]; [8],28.6%
same,Control effect (%) of B applied alone in corresponding dose,[4]; [9],54.1%
same,Control effect (%) of B applied alone in corresponding dose,"[5]; B 75 g a.i./ha, 20 days",2.1%
same,Control effect (%) of B applied alone in corresponding dose,"[5]; B 150 g a.i./ha, 20 days",8.7%
same,Control effect (%) of B applied alone in corresponding dose,"[5]; B 300 g a.i./ha, 20 days",15.3%
same,Control effect (%) of B applied alone in corresponding dose,"[5]; B 600 g a.i./ha, 20 days",34.5%
same,Control effect (%) of B applied alone in corresponding dose,[5]; [6],2.1%
same,Control effect (%) of B applied alone in corresponding dose,[5]; [7],8.7%
same,Control effect (%) of B applied alone in corresponding dose,[5]; [8],15.3%
same,Control effect (%) of B applied alone in corresponding dose,[5]; [9],34.5%
